Test results reported in patent US20210198685A1, “PLANTS CONTAINING ELITE EVENT EE-GM4 AND METHODS AND KITS FOR IDENTIFYING SUCH EVENT IN BIOLOGICAL SAMPLES, AND TREATMENT THEREOF” (priority 2018, published 2021).

Tested on: soybean plants containing event EE-GM4
Experiment: HPPD inhibitor herbicide tolerance field trials on soybean plants containing EE-GM4
Assay type: in vivo, Glycine max
Conditions: for average maximum phytotoxicity: plants with EE-GM4; for tolerance / crop damage of plants with EE-GM4, herbicide applied post-emergence / tolerance of plants with EE-GM4 to herbicide applied pre-emergence: field, 2 years; for tolerance / crop damage of plants with EE-GM4, herbicide applied post-emergence: post-emergence at V2-V3 stage with crop oil concentrate and ammonium sulfate, 2x dose (210 gr/ha); for tolerance of plants with EE-GM4 to herbicide applied pre-emergence: 4x dose (420 gr/ha IFT, 840 gr/ha mesotrione)
Description: Numbers in ( ) below a treatment give the number of trials included in the bar, the number on top of each bar gives the average maximum phytotoxicity value for that treatment. Treatments applied were: IFT=isoxaflutole, MST=mesotrione, PE=pre-emergence, PO=post-emergence (at V2-V3 stage, with adjuvants crop oil concentrate and ammonium sulfate added to increase herbicide activity). Rates shown are in gram active ingredient/hectare (4× dose in pre-emergence, 2× dose in post-emergence).
Tolerance of plants comprising EE-GM4 to HPPD inhibitor herbicides was tested at different locations in the field over 2 years. […] All post-emergence treatments were at the V2-V3 stage, with adjuvants crop oil concentrate and ammonium sulfate added to increase herbicide activity.
The “maximum phytotoxicity” as used herein is the highest phytotoxicity rating recorded at any observation during the duration of a trial (with 3 to 4 observations per trial). In existing weed control applications, a normal (1×) dose for isoxaflutole (IFT) in pre- or post-emergence application and for MST in post-emergence application is 105 gr/ha, and a normal (1×) dose for mesotrione in pre-emergence application is 210 gr/ha.
Also, in several field trials across 2 years, soybean plants with event EE-GM4 had good tolerance towards experimental HPPD inhibitor compound 2-methyl-N-(5-methyl-1,3,4-oxadiazol-2-yl)-3-(methylsulfonyl)-4-(trifluoromethyl)benzamide (U.S. Pat. No. 9,101,141) when applied pre-emergence at 400 gr ai/ha or post-emergence at 200 gr ai/ha, respectively (the average maximum phytotoxicity value for each treatment was below 20%). […] All post-emergence treatments were at the V2-V3 stage, with adjuvants crop oil concentrate and ammonium sulfate added to increase herbicide activity.

Row | Compound | average maximum phytotoxicity (post-emergence at 100-150 gr ai/ha, V2-V3 stage with adjuvants) [%] | average maximum phytotoxicity (post-emergence at 200 gr ai/ha, V2-V3 stage with adjuvants) | average maximum phytotoxicity (pre-emergence at 400 gr ai/ha, field trials across 2 years) | tolerance / crop damage of plants with EE-GM4, herbicide applied post-emergence | tolerance of plants with EE-GM4 to herbicide applied pre-emergence
1 | CSc1c(C(F)(F)F)ccc(C(=O)Nc2nnnn2C)c1Cl [2-chloro-3-(methylsulfanyl)-N-(1-methyl-1H-tetrazol-5-yl)-4-(trifluoromethyl)benzamide] | 30 | – | – | – | –
2 | Cc1nnc(NC(=O)c2ccc(C(F)(F)F)c(S(C)(=O)=O)c2C)o1 [2-methyl-N-(5-methyl-1,3,4-oxadiazol-2-yl)-3-(methylsulfonyl)-4-(trifluoromethyl)benzamide] | – | below 20% | below 20% | – | –
3 | CS(=O)(=O)c1cc(C(F)(F)F)ccc1C(=O)c1cnoc1C1CC1 [isoxaflutole, (5-cyclopropyl-4-isoxazolyl)[2-(methylsulfonyl)-4-(trifluoromethyl)phenyl]methanone] | – | – | – | crop damage was a bit higher | commercially relevant tolerance
4 | CS(=O)(=O)c1ccc(C(=O)C2C(=O)CCCC2=O)c([N+](=O)[O-])c1 [mesotrione, 2-[4-(Methylsulfonyl)-2-nitrobenzoyl]cyclohexane-1,3-dione] | – | – | – | commercially relevant tolerance | commercially relevant tolerance
